Laboratory results: patent publication US12661308B2, “Antimicrobial AZO compounds and uses thereof” (The Regents Of The University Of Colorado, A Body Corporate, priority 2019, dated 2026)
Entries after “also recorded” stand apart in the source; their conditions may differ.

Experiments:
S. mutans = assay: Kill curve kinetic study of S. mutans in media surrounding the coated substrate; assay type: cell-based, Streptococcus mutans
Protocol: FIG. 13 are images from a complete plating of media of S. mutans in contact with OH-AAZO-coated substrates at different timepoints following seeding. The media sampled shown in FIG. 13 (A) at t=0 h was serial diluted as described in Example 4 (below) and gave a total CFU count of (8.0±3.2)×10^6 CFUs. The media sampled shown in FIG. 13 (B) at t=4 h was streaked across the entire plate and gave a total CFU count of 8 CFUs. The media sampled shown in FIG. 13 (C) at t=24 h was streaked across the entire plate and gave a total CFU count of 0 CFUs.
We sampled aliquots of the media containing S. mutans surrounding the OH-AAZO substrate at different time points (FIG. 4). At t=0, S. mutans colonies (1×10^6 CFUs) were introduced to the OH-AAZO coated substrate. At t=4 h, the CFU count in the well was reduced 2-log, and by t=6 h, the CFU count had reduced to zero.

[1] = tested on: A. actinomycetemcomitans (ATCC 43718) biofilm; assay: Biofilm growth study, A. actinomycetemcomitans; assay type: cell-based, Aggregatibacter actinomycetemcomitans; details: 50 mg/mL coated substrate, 24 h time-period
Protocol: S. oralis and A. actinomycetemcomitans were streaked on a BHI agar plate and incubated at 37° C. and 5% CO2 for 48 h. An isolated colony was inoculated in 5 mL BHI media for 12 h under the same incubation conditions, followed by a 1:10 dilution in BHI media in a 96-well plate containing the substrates of interest. […]
Following biofilm growth in the 96-well plate, the substrates were aseptically removed from the 96-well plate and placed in a vial containing 5 mL of 1× PBS solution. The vials were sonicated in a water bath for 10 min at 45° C., and the wells that previously contained the substrates were briefly sonicated using a probe sonicator (3 W RMS output) for 10 s per well. 200 μL aliquots of the sonicated PBS solution were placed in a 96-well plate and diluted 1:10 in each subsequent row. 20 μL aliquots of the sonicated media wells were placed in a 96-well plate containing 180 μL of PBS solution and diluted 1:10 in each subsequent row. Each column was then plated at a volume of 10 μL on a BHI agar plate in triplicate. The plates were then incubated at 37° C. and 5% CO2 for 48 h. The CFUs on each plate were counted in order to quantify the amount of biofilm remaining on the surface of the substrate and the bacteria remaining in the media after the removal of the substrate using the following equations: […]

[2] = tested on: S. mutans (ATCC 25175) biofilm; assay: Detachment study of S. mutans biofilm on monomer-coated polymeric substrates (Example 1); assay type: cell-based, Streptococcus mutans
Protocol: The polymeric substrates were prepared by mixing 54 wt % methyl methacrylate (MMA), 30 wt % polymethylmethacrylate (PMMA, MW ˜35 k), and 16 wt % tetraethylene glycol dimethacrylate (TEGDMA) at 70° C. for 2 hr. After mixing, 1 wt. % azobisisobutyronitrile (AIBN) was added to the formulation as an initiator and mixed.
The mixed formulation was added to circular molds (diameter=6.5 mm) cut from a strip of rubber (thickness=0.9 mm) and pressed between two glass microscope slides. The mold was clamped together and thermally cured at 80° C. for 1.5 hr.
The polymeric substrates were coated as follows. Coating solutions were prepared having the following monomer concentrations (see FIG. 3 for structures of the monomers): 0.5 mg/mL and 50 mg/mL solutions of a phenolic acrylated azobenzene monomer (OH-AAZO), 50 mg/mL acrylated azobenzene monomer (AAZO), 50 mg/mL 4-hydroxyl benzylacrylate (HBA), 50 mg/mL 2-hydroxylethyl methacrylate (HEMA).
The coating solutions included the monomer in N,N′-dimethylformamide (DMF) along with 0.5 mg/mL of AIBN and 0.1 mg/mL of Rhodamine B as an indicator dye. Once mixed, 3 μL of each coating solution was pipetted onto one side of the polymeric substrate and spun at 1000 RPM for 1 min followed by spinning at 6000 RPM for 3 s. The coating was cured under a nail lamp (Melody Susie UV Gel Nail Polish Dryer, Model DR-301C) for at least 15 min before repeating the coating procedure on the other side.
The controlled growth of biofilms varied depending on the bacteria strain. In the case of S. mutans, a BHI agar plate was streaked with S. mutans (ATCC 25175) and allowed to incubate at 37° C. in 5% CO2 for 60 hr to isolate a single bacterial colony. The colony was inoculated in 5 mL of BHI and allowed to incubate statically in the 5% CO2 incubator for 24 hr. The stock solution was diluted 1:50 in a 96-well plate containing the substrates of interest and allowed to incubate in the 5% CO2 incubator for an additional 24 hr.
The detachment study quantified the biofilm grown on each substrate via a series of washes in 1×PBS. The substrate was irradiated using a dental lamp (FlashMax P3 Ortho™, 1900 mW/cm2, wavelength=450-470 nm) on the underside of the vial for a total of ten 3 s irradiations per side. Following the series of washes, the substrate was sonicated for 10 min to remove the residual biofilm on the substrate. The wash solutions were serial diluted, plated, and grown at 37° C. and 5% CO2 to obtain the CFU count.
Images collected from a digital microscope (Zeiss Axioplan II microscope, 630×, step size 0.1 μm) after the substrate and bacteria were treated with BACLIGHT Live/Dead stain are included in FIG. 4.

[3] = tested on: L929 mouse epithelial cells; assay: MTT cytotoxicity of coated substrates (Example 3); assay type: cell-based; details: 0.5 mg/mL and 50 mg/mL coated substrates, cells grown 100 hr, relative to uncoated sample and negative control
Protocol: In this Example, the cytotoxicity of polymeric substrates coated with 0.5 mg/mL OH-AAZO and 50 mg/mL OH-AAZO in the manner described in Example 1 were tested using L929 mouse epithelial cells. The following six samples were prepared: polymeric substrate coated with 50 mg/mL OH-AAZO, polymeric substrate coated with 0.5 mg/mL OH-AAZO, uncoated polymeric substrate, positive control, negative control, and an empty well. All coatings were spin coated. All samples were run in triplicate.
The cells were grown on substrates for 100 hr with media replacement when necessary. L929 conditions: Passage 3. Initial concentration of cells: 1.67×10^4 cells/mL.
Methods and assumptions: • Wells containing MTT product were analyzed at 570 nm. • OD570 values were corrected based on OD570 values of wells containing MTT product+other reagents only (no cells). • Assumes 100% cell death (i.e., 0% cell viability) in these positive control wells. • Negative control (−) wells contained cells grown with no substrate. • Assumes all cell death occurred naturally.
Cell viability was calculated using the following equation: […]

In the case of `C=CC(=O)Oc1ccccc1/N=N/c1ccccc1O` [OH-AAZO, phenolic acrylated azobenzene], the “total CFU count, complete plating of media” value (S. mutans; t=0 h, serial diluted) is reported as “(8.0±3.2)×10^6 CFUs”, the “reduction of CFU count in the well” value (S. mutans; t=4 h, from 1×10^6 CFUs at t=0) is reported as 2 log and the “total CFU count, complete plating of media” value (S. mutans; t=4 h, streaked across the entire plate) is reported as 8 CFUs. For the same compound, the “S. mutans CFU count in the media” value (S. mutans; t=6 h) was “zero and complete S. mutans death and absence of S. mutans”, the “antibacterial effect on A. actinomycetemcomitans biofilm (CFUs)” value [1] was “no discernable antibacterial effect or reduction in CFUs” and the “antibacterial effect against S. mutans” value ([2]; 0.5 mg/mL coating solution, compared with 50 mg/mL coating) was “did not result in the same antibacterial effect”. For the same compound, the “S. mutans growth on the surface of the coated substrate” value ([2]; 50 mg/mL coating, even prior to light/wash treatment) was “no growth at all”, the “S. mutans biofilm on substrate, Live/Dead stain microscopy” value ([2]; prior to wash/light treatment) was “comparatively very little biofilm” and the “cytotoxicity (cell viability, MTT)” value [3] was “non-cytotoxic; also recorded: does not contribute significantly to cytotoxicity”.
